Like-named read-outs stand apart in the source and are kept apart here.
Columns and labels:
FaSSIF Solubility Assay = format: physicochemical; conditions: FaSSIF (fasted state simulated intestinal fluid), 25 °C, pH 6.5, fassif, thermodynamic from solid, FaSSIF pH=6.5, 25° C.
Text: The FaSSIF (Fasted State Simulated Intestinal Fluid) solubility assay can predict how an oral drug is likely to be dissolved and potentially absorbed in the upper intestine after drinking a glass of water. FaSSIF solubility assay utilizes biorelevant intestinal media (Biorelevant, Part #FFF01) comprised of physiological surfactants, bile salts, and phospholipids that are present in the gastrointestinal fluids it mimics. FaSSIF (pH=6.5) has the average pH of a fasted intestinal fluid with similar osmolarity. The FaSSIF buffer was prepared by adding 20 mL of phosphate buffer to FaSSIF Powder. The buffer was then added to the dry compound of interest at a concentration of 1 mg/mL and then incubated at 25° C. for 24 hours in a Rototherm Plus (Part #H2024). After incubation, the Eppendorf tubes were centrifuged and run on an Agilent 1260 LC-MS. The LC-MS method is a 5 min gradient method of 2% to 95% acetonitrile with water (0.05% TFA) using a Sunfire C18, 5 um 2.1×50 mm (Part #186002539) column. A dry reference compound of interest was diluted to a known 1 mg/mL concentration in 1:1 of water and acetonitrile. Step-wise serial dilutions were performed and run on an Agilent 1260 LC-MS using the same conditions to make a standard curve. The area under the curve is reported for the compound of interest in FaSSIF buffer and the reference standards. Calculations were performed and the predicted solubility, μg/mL, was reported for compounds of the examples.

[1] = biological target: pseudo-kinase domain (JH2) of human V617F mutant JAK2 (Homo sapiens (Human), UniProt O60674, F794H/V617F/W659A/W777A); test: JAK2 LanthaScreen JH2-V617F Binding Assay; conditions: read-out: JH2 V617F Bind IC50
Sequence of pseudo-kinase domain (JH2) of human V617F mutant JAK2 (O60674 536-812 V617F/W659A/W777A/F794H): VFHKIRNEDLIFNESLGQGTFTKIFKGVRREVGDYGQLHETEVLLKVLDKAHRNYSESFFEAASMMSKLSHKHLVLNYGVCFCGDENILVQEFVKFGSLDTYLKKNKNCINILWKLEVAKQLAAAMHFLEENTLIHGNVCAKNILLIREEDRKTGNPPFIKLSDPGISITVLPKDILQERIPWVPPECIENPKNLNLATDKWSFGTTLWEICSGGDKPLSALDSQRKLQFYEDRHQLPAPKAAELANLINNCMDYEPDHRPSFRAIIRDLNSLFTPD
Experimental: JAK2 JH2-V617F binding assay utilizes pseudo-kinase domain (JH2, amino-acids 536-812 with 3 surface mutations W659A, W777A, F794H) of human V617F mutant JAK2 expressed as C-terminal His-Avi-tagged, biotinylated protein in a baculovirus expression system (BPS Bioscience, Catalog #79498). The assay was conducted in black 384-well polystyrene plates in a final reaction volume of 20 μL. JAK2 JH2-V617F (0.26 nM) was incubated with compounds (100 nL serially diluted in DMSO) in the presence of 50 nM Fluorescent JAK2-JH2 Tracer (MedChem Express Catalog #HY-102055) and 0.25 nM Streptavidin-Tb cryptate (Cisbio Part #610SATLB) in assay buffer (50 mM Tris, pH=7.5, 10 mM MgCl2, 0.01% Brij-35, 0.1% BSA, 1 mM EGTA, 5% Glycerol and 5 mM DTT). Non-specific binding was accessed in the presence of 2 mM ATP. After incubation for 1 hour at 25° C., LanthaScreen signals were read on a PHERAstar FS plate reader (BMG LABTECH). Data was analyzed with IDBS XLfit and GraphPad Prism 5.0 software using a four parameter dose response curve to determine IC50 for each compound.

[2] = test system: STAT5 (Tyr694) phosphorylation in SET-2 cells; test: STAT5 (Tyr694) Phosphorylation Cell Based Assay; conditions: Homo sapiens, 2 hours, read-out: SET2 IC50
Experimental: SET-2 cells was purchased from DSMZ (Germany). RPMI1640 medium, Fetal Bovine Serum and 384-white sold flat-bottom small volume plate were purchased from Thermo Fisher Scientific (Waltham, MA). Phospho-STAT5 (Tyr694) HTRF kit was purchased from Perkin Elmer (Waltham, MA).
SET-2 cells were cultured in RPMI media with 20% FBS at 37° C. in humidified incubator supplied with 5% CO2. On the day of assay, the cells were centrifuged to remove the culture media and resuspended with prewarmed RPMI with 10% FBS. Testing compounds were prepared by serial dilution in DMSO and 50 nL/well test compounds were transferred to the 384 white low volume cell culture plate (Greiner Bio-one) by ECHO liquid handler (Labcyte). The cells were then dispensed with Multidrop (Thermo Fisher, Waltham, MA) at 10 μL/well (7×10^6 cells/mL) with 0.5% DMSO in the final assay. After the treated cells were incubated for 2 hours at 37° C./5% CO2 incubator, 4 μL/well supplemented lysis buffer (100× blocking buffer diluted 25 fold in 4× lysis buffer, Perkin Elmer) were added and incubated at room temperature for 90 min on orbital shaker at 600 rpm. Phospho-STAT5 Cryptate antibody and Phospho-STAT5 d2 antibody (1:1 vol/vol) were premixed and diluted 20 fold with in the detection buffer (Perkin Elmer). 4 μL of the premixed antibody solution were added to each well followed with 24 hours incubation at room temperature on orbital shaker at 600 rpm. The product activity was determined by measuring the fluorescence at 620 nm and 665 nm on Pherastar microplate reader (BMG Labtech). A ratio is calculated (665/620) for each well. Wells with DMSO only served as the positive controls and wells containing high concentration of control compound were used as negative controls. IC50 determination was performed by fitting the curve of percent control activity versus the log of the compound concentration using the GraphPad Prism 7.0 software.

FLT3 [3] = test: FLT3 Enzymatic Assay; format: biochemical
Experimental: (§1) The kinase assays were carried out at room temperature in assay buffer (HEPES 50 mM, pH 7.0, NaN3 0.02%, BSA 0.01%, Orthovanadate 0.1 mM, DTT 1 mM, MgCl2 10 mM) in a final volume of 10 μL. Testing compounds were prepared by serial dilution in DMSO and transferred to the plate wells by ECHO liquid handler (Labcyte) with 0.5% DMSO in the final assay. […]. Reactions were initiated by the addition of 5 μL ATP in assay buffer. The final 10 μL kinase reaction consists of 0.011 nM FLT3, 1 mM ATP, 500 nM TK Substrate-biotin and SEB reagent 62.5 nM in assay buffer. […] The plates were then sealed and centrifuged at 1800 rpm for 2 minutes. After 60 minutes incubation at room temperature, the product activity was determined by measuring the fluorescence at 620 nm and 665 nm on Pherastar microplate reader (BMG Labtech). A ratio is calculated (665/620 nm) for each well. Wells with DMSO only were served as the positive controls and wells containing no ATP were used as negative controls. IC50 determination was performed by fitting the curve of percent control activity versus the log of the compound concentration using the GraphPad Prism 7.0 software.

FLT3 [4] = biological target: FLT3 (Homo sapiens (Human), UniProt P36888); test: FLT3 Enzymatic Assay; format: biochemical; conditions: 1 mM ATP
Sequence of FLT3 (Homo sapiens (Human), UniProt P36888) (P36888 27-993, species assumed): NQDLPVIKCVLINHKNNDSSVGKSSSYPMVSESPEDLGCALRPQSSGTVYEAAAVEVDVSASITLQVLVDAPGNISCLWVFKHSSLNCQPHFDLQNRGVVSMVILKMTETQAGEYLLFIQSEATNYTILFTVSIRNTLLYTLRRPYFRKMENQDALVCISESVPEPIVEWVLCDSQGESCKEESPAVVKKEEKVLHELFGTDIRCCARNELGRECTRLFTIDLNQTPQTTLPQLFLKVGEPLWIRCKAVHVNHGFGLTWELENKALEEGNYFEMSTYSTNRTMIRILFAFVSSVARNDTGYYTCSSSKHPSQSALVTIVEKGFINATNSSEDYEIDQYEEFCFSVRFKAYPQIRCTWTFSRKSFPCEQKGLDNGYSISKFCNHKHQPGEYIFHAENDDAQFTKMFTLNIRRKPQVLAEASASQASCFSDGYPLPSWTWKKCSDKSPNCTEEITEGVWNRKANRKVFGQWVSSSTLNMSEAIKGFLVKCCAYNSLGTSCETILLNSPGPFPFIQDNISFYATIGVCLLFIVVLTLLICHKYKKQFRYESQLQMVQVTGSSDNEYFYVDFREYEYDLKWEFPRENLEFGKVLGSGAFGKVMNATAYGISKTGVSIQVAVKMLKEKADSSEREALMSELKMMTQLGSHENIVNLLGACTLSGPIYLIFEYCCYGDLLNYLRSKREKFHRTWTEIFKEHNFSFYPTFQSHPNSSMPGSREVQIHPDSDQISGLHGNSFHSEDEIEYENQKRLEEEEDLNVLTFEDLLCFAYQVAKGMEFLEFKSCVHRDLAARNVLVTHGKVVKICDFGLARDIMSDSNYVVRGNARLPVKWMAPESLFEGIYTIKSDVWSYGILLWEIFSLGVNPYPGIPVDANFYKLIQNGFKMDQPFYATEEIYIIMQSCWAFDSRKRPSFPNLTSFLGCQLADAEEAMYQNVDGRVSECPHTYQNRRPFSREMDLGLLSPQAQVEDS
Experimental: as §1

TRKA [5] = test: TRKA Enzymatic Assay; format: biochemical
Experimental: (§2) The kinase assays were carried out at 24° C. temperature in assay buffer (HEPES 50 mM, pH 7.0, NaN3 0.02%, BSA 0.01%, Orthovanadate 0.1 mM, DTT 1 mM, MgCl2 10 mM) in a final volume of 10 μL. Testing compounds were prepared by serial dilution in DMSO and transferred to the plate wells by ECHO liquid handler (Labcyte) with 0.5% DMSO in the final assay. […]. Reactions were initiated by the addition of 5 μL ATP in assay buffer. The final 10 μL kinase reaction consisted of 0.58 nM TRKA, 1 mM ATP, 500 nM TK Substrate-biotin and SEB reagent 62.5 nM in assay buffer. […] After 60 minutes incubation at room temperature, the product activity was determined by measuring the fluorescence at 620 nm and 665 nm on Pherastar microplate reader (BMG Labtech). A ratio was calculated (665/620 nm) for each well. Wells with DMSO only served as the positive controls and wells containing no ATP were used as negative controls. IC50 determination was performed by fitting the curve of percent control activity versus the log of the compound concentration using the Gene data.

TRKA [6] = biological target: TRKA (Homo sapiens (Human), UniProt P04629); test: TRKA Enzymatic Assay; format: biochemical; conditions: 1 mM ATP
Sequence of TRKA (Homo sapiens (Human), UniProt P04629) (P04629 33-796, species assumed): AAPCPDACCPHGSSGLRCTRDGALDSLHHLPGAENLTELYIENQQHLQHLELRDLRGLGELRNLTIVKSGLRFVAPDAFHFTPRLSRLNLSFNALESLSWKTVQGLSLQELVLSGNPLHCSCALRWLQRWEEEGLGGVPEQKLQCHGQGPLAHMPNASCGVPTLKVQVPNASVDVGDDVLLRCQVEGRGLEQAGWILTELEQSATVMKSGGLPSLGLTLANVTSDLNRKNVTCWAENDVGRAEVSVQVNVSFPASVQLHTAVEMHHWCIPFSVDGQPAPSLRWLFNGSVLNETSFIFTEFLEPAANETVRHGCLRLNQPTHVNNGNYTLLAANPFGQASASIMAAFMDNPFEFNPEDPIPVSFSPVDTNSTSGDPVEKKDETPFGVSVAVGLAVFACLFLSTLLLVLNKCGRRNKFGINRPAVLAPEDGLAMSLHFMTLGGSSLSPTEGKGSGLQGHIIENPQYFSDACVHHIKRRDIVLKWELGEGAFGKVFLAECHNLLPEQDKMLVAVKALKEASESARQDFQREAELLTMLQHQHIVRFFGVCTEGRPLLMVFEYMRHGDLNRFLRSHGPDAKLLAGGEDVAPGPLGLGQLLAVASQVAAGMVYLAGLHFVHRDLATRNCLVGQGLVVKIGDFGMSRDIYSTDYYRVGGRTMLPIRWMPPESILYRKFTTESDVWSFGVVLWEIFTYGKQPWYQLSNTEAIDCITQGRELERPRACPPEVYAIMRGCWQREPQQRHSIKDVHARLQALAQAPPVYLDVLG
Experimental: as §2

Q: Which solubility at 24 h (FaSSIF Solubility Assay; read-out: FaSSIF solubility) does the source give for `COc1ccc(-c2c(-c3cnn(Cc4ccncc4)c3)[nH]c3ncc4c(c23)n(C2CCCC2)c(=O)n4C)cc1` [Comparative Example D, reference compound] here?
A: < 20 µg/mL

Q: What about the IC50 [1] of the same molecule?
A: ≤ 10 nM

Q: With `CN(C)C(=O)c1ccc(-c2[nH]c3ncc4c(c3c2-c2ccc3c(cnn3C)c2)n(C2CCCC2)c(=O)n4C)cc1` [Comparative Example F, reference compound] as the molecule, how does the solubility at 24 h (FaSSIF Solubility Assay; read-out: FaSSIF solubility) read?
A: < 20 µg/mL

Q: And the solubility at 24 h (FaSSIF Solubility Assay; read-out: Solubility Fassif)?
A: ≤ 50 µg/mL

Q: And the IC50 [2]?
A: 300 to 800 nM

Q: And the “Selectivity FLT3/JH2 V617F” value (FLT3 [3])?
A: * (selectivity of ≤500-fold)

Q: And the IC50 (FLT3 [4])?
A: 25 to 250 nM

Q: What about the “Selectivity TRKA/JH2 V617F” value (TRKA [5]) of the same molecule?
A: * (selectivity of ≤500-fold)

Q: What about the IC50 (TRKA [6]) of the same molecule?
A: 25 to 250 nM

Q: And the IC50 [1]?
A: ≤ 10 nM

Reference: US20250092044A1, “Kinase Inhibitors” (Incyte Corporation, priority 2023, published 2025)
